The data set in a line: in vitro. The following applies: human, hela cells, % viability.
One may read the viability as a read-out of living cells in per cent, often relative to untreated cells. Consider `N#Cc1ccncc1NCc1ccccc1CN1CCCC1CO` (stereo not drawn) [CBK304021], for which the viability at 28.5 h, 10 µM was determined as 85%.

Turning to `c1ccc(C(NCc2cnc(C3CCC3)s2)C2CCCC2)nc1` (stereo not drawn) [CBK304022], the viability at 28.5 h, 10 µM was 88.6%. Next, `CN(C(=O)NC1CCCc2c1cnn2CCO)c1ccccc1F` (stereo not drawn) [CBK304024]: 109%. Next, `Cn1c(C2CC2)nc2c1CCN(Cc1cc(=O)n(C)c(=O)n1C)C2` [CBK304025]: 115%; `Cc1nc(C)n(CC2CCCN(Cc3cn4ccccc4n3)C2)n1` (stereo not drawn) [CBK304028]: 88.3%; `Cc1nnc(SCCN2CCOC2=O)n1CCc1cccs1` [CBK304029]: 93.7%. Consider `CCC(c1ccc(F)cc1F)N1CCN(Cc2nc(C)no2)CC1` (stereo not drawn) [CBK304032], for which the viability at 28.5 h, 10 µM came out at 103%.

Regarding `Cc1cccn2cc(CCNC(=O)N3CCOCC3C3CC3)nc12` (stereo not drawn) [CBK304033], the viability at 28.5 h, 10 µM was found to be 104%. For `CCOC(=O)c1cnn(C2CCCN(Cc3cncs3)C2)c1` (stereo not drawn) [CBK304039], the viability at 28.5 h, 10 µM is 94.7%.

As to `Cc1cc(C)n(CC2CCCCN2C(=O)COc2cccnc2)n1` (stereo not drawn) [CBK304040], the viability at 28.5 h, 10 µM stood at 105%. Take `Cc1cnn(CC2CCCCN2CC(=O)NCc2ccccn2)c1` (stereo not drawn) [CBK304041]: the viability at 28.5 h, 10 µM came to 110%.

Regarding `CCOC(=O)c1cnn(C2CCCN(Cc3cn(C)nc3C)C2)c1` (stereo not drawn) [CBK304044], the viability at 28.5 h, 10 µM was found to be 89.2%.

With `CCNc1ncc(C(=O)N2CCC(Nc3cccnc3)CC2)s1` [CBK304047], the viability at 28.5 h, 10 µM was 99.6%.

`CC(C)(C)OC(=O)N1CCCC(NC(CO)c2ccco2)CC1` (stereo not drawn) [CBK304049]: the viability at 28.5 h, 10 µM amounted to 101%.

In the case of `N#CCCN(Cc1ccco1)C(=O)c1ccc(OCC2CC2)cc1` [CBK304051], the viability at 28.5 h, 10 µM turned out to be 85%. For the compound `Cc1nc(CN(C)C2CCN(Cc3ccc4c(c3)CCC4)C2)no1` (stereo not drawn) [CBK304052], the viability at 28.5 h, 10 µM amounted to 76.5%.

With `Cc1c(C(C)NCC2CCN(C)CC2)cnn1-c1ccc(C#N)cc1` (stereo not drawn) [CBK304058], the viability at 28.5 h, 10 µM was 97.3%. For `O=C(Cn1cnc(NCc2cscn2)n1)N1CCCCCC1` [CBK304061], the viability at 28.5 h, 10 µM amounted to 98%. Next, `Cc1c(C(C)NCCc2nnc[nH]2)cnn1-c1ccc(C#N)cc1` (stereo not drawn) [CBK304063]: 98.1%; `CCc1nc2ccccc2n1CC(=O)N(Cc1cccnc1)C1CC1` [CBK304064]: 107%. As to `CC(Oc1ccc(C#N)cc1)C(=O)NCC(C)(C)N1CCOCC1` (stereo not drawn) [CBK304066], the viability at 28.5 h, 10 µM was 90%. Take `Cc1nc(CN2CCCC(NCc3cccc4ccccc34)C2)no1` (stereo not drawn) [CBK304068]: the viability at 28.5 h, 10 µM was determined as 71.4%.

As for `Cc1nnc(N2CCN(Cc3sccc3Cl)CC2)nc1C` [CBK304075], the viability at 28.5 h, 10 µM is 93.7%. As to `Cc1ccc(C#N)c(NCc2ccccc2CN2CCCC2CO)n1` (stereo not drawn) [CBK304076], the viability at 28.5 h, 10 µM was 75.5%. For `N#Cc1ccc(NCc2ccccc2CN2CCCC2CO)cn1` (stereo not drawn) [CBK304077], the viability at 28.5 h, 10 µM is 97.9%. `Cc1nnc(CN2CCOc3ccc(Br)cc3C2)o1` [CBK304079]: the viability at 28.5 h, 10 µM was found to be 99%.

For `CCOC(=O)c1csc(C2CCCN2C(=O)c2ccoc2C)n1` (stereo not drawn) [CBK304080], the viability at 28.5 h, 10 µM stood at 109%. Next, `Cc1nc(CCNC(=O)c2cc(C(C)C)n(C(C)(C)C)n2)cs1` [CBK304082]: 89.2%. Consider `CNC(=O)c1ccc(CN(Cc2noc(C(C)C)n2)C2CC2)cc1` [CBK304084], for which the viability at 28.5 h, 10 µM came to 83%. `Cn1cc(C2C[S+]([O-])CCN2Cc2csc3ccccc23)cn1` (stereo not drawn) [CBK304085]: the viability at 28.5 h, 10 µM was determined as 103%. Next, `CNS(=O)(=O)c1cccc(C(C)NC(=O)N2CCC(COC)CC2)c1` (stereo not drawn) [CBK304087]: 90.4%; `CC(C)c1ccc(C(=O)NC2CCN(CC(F)(F)F)C2=O)nc1` (stereo not drawn) [CBK304089]: 108%.

As for `COCCN(C(=O)c1nc2cccnc2s1)C1CCS(=O)(=O)C1` (stereo not drawn) [CBK304091], the viability at 28.5 h, 10 µM was found to be 97%. Take `COCCc1noc(CC2CCN(c3ccc(C#N)nc3)CC2)n1` [CBK304094]: the viability at 28.5 h, 10 µM was determined as 89.9%. Next, `Cc1csc2c(N3CCC(OCCN4CCCC4)CC3)ncnc12` [CBK304095]: 84%; `CCN(CC1CCN(c2ccccn2)CC1)C(=O)C1(C#N)CCCC1` [CBK304096]: 98.7%. On to `CCOC(=O)C(NC(=O)c1cn(C)cn1)c1cccc(C)c1C` (stereo not drawn) [CBK304098], for which the viability at 28.5 h, 10 µM turned out to be 107%.

As to `CCOC(=O)C1CCCN(C(=O)Cn2ccc3sccc3c2=O)C1` (stereo not drawn) [CBK304099], the viability at 28.5 h, 10 µM is 100%.

`Cc1cccc(OCC(C)NC(=O)N2CCCC2c2cnn(C)c2)c1` (stereo not drawn) [CBK304100]: the viability at 28.5 h, 10 µM came out at 91.6%.

As to `Cc1ccc(CS(=O)(=O)N(CCO)C2CCC2)c(F)c1` [CBK304101], the viability at 28.5 h, 10 µM was found to be 82.2%.

Turning to `Cc1nnc(CS(=O)(=O)Cc2csc(C(C)C)n2)n1C1CC1` [CBK304106], the viability at 28.5 h, 10 µM was 101%.

In the case of `CC(C)(C)n1cc(C(=O)N2CCNCC2c2cccc(Cl)c2)cn1` (stereo not drawn) [CBK304112], the viability at 28.5 h, 10 µM turned out to be 96.9%. On to `Cc1cc(C)n(CC(=O)N2CCNCC2c2cccc(Cl)c2)n1` (stereo not drawn) [CBK304116], for which the viability at 28.5 h, 10 µM stood at 92.7%. Next, `CCc1n[nH]c(C2CN(Cc3nc4c(F)cccc4[nH]3)CCO2)n1` (stereo not drawn) [CBK304117]: 90.9%; `O=C(c1cnc(-c2ccncc2)s1)N(CC(F)(F)F)C1CCC1` [CBK304119]: 84.1%. Turning to `Cc1ncccc1-c1csc(C2CCCO2)n1` (stereo not drawn) [CBK304121], the viability at 28.5 h, 10 µM was found to be 117%.

On to `CC1CNCCN1C(=O)c1ccnc(N2CCN(C)CC2)c1` (stereo not drawn) [CBK304122], for which the viability at 28.5 h, 10 µM came out at 88.6%.

As to `CCOC(=O)c1csc(C2CCCN2C(=O)c2ccsc2)n1` (stereo not drawn) [CBK304125], the viability at 28.5 h, 10 µM was determined as 77.5%. As to `Cc1cnc(NC(=O)N2CCOC(c3ccc(F)cc3F)C2)s1` (stereo not drawn) [CBK304126], the viability at 28.5 h, 10 µM turned out to be 88.5%. Take `CC(C(=O)N(CCC#N)Cc1cccnc1)n1cnc2ccccc21` (stereo not drawn) [CBK304127]: the viability at 28.5 h, 10 µM turned out to be 92.5%. `CC(C)c1nc(C2CCCN(c3ncc(C#N)cc3Cl)C2)no1` (stereo not drawn) [CBK304128]: the viability at 28.5 h, 10 µM is 111%.

As to `CCn1cc(C2CN(S(=O)(=O)Cc3ccccc3)CCO2)cn1` (stereo not drawn) [CBK304129], the viability at 28.5 h, 10 µM was found to be 106%. Regarding `CCOC(=O)C(NC(=O)c1cc[nH]n1)c1cccc(C)c1C` (stereo not drawn) [CBK304131], the viability at 28.5 h, 10 µM is 85.5%. With `CCc1nnc(CN(C)Cc2c(C)nn(C)c2Cl)o1` [CBK304132], the viability at 28.5 h, 10 µM turned out to be 90.5%. `Cc1nc(C)n(CC2CCCN(Cc3cc(=O)n4ccccc4n3)C2)n1` (stereo not drawn) [CBK304135]: the viability at 28.5 h, 10 µM was determined as 88.5%. In the case of `Cc1ccc(Cc2cnc(NC(=O)NC3CCOC(C)(C)C3)s2)cc1F` (stereo not drawn) [CBK304139], the viability at 28.5 h, 10 µM came to 92.2%.

As to `Cc1csc(CCNCc2c(C(C)C)nn(C)c2N(C)C)n1` [CBK304140], the viability at 28.5 h, 10 µM was found to be 89%. Take `CCOc1cc(NC2CCN(C(=O)CC3(O)CCCCC3)CC2)ncn1` [CBK304141]: the viability at 28.5 h, 10 µM was 81.6%. Consider `CCCC1CCCN(Cc2nnnn2-c2ccc(S(C)(=O)=O)cc2)C1` (stereo not drawn) [CBK304142], for which the viability at 28.5 h, 10 µM stood at 89.2%. Consider `NC(=O)c1ccc(C(=O)NCC2CN3CCCN2CC3)cc1` (stereo not drawn) [CBK304143], for which the viability at 28.5 h, 10 µM is 114%.

As to `CCc1ccc(C(O)CNC2CCN(CC(F)F)CC2)cc1` (stereo not drawn) [CBK304144], the viability at 28.5 h, 10 µM stood at 109%.

With `c1ccc(C(Nc2cnccn2)C2CC2)cc1` (stereo not drawn) [CBK304145], the viability at 28.5 h, 10 µM worked out at 106%.

Take `Cc1nnc(CN(CC2CCCO2)C2CCCC2)n1C1CC1` (stereo not drawn) [CBK304147]: the viability at 28.5 h, 10 µM is 95.5%. On to `CCOC(=O)CN1CCCN(c2c(F)cc(C#N)cc2F)CC1` [CBK304148], for which the viability at 28.5 h, 10 µM was 86.9%. For `CCCc1occc1C(=O)N1CCOCC1C(=O)O` (stereo not drawn) [CBK304151], the viability at 28.5 h, 10 µM amounted to 97.9%. Next, `CC(Cc1nc(-c2ccnn2C)cs1)n1cc(Cl)cn1` (stereo not drawn) [CBK304152]: 96.6%.

Consider `COCCc1noc(CC2CCN(c3ncc(C#N)cc3F)CC2)n1` [CBK304153], for which the viability at 28.5 h, 10 µM was found to be 115%. Next, `CN(Cc1nncn1C)C(=O)c1cnc2c(c1)c(C(C)(C)C)nn2C` [CBK304154]: 85.4%; `Cn1cc(CNCC2CCN(c3ccccc3)C2)c(-c2cccnc2)n1` (stereo not drawn) [CBK304155]: 95.7%; `CCC(=O)N(C)C(CO)c1cc(OC)ccc1Br` (stereo not drawn) [CBK304156]: 95.9%.

Turning to `CC(=O)Nc1ccc(NCc2csc(C3CCCO3)n2)c(C(F)(F)F)c1` (stereo not drawn) [CBK304161], the viability at 28.5 h, 10 µM is 101%.

Take `COc1ccc(C)cc1C1(CNC(=O)C2CC(O)CN2)CCOCC1` (stereo not drawn) [CBK304162]: the viability at 28.5 h, 10 µM was 92%.

On to `Cc1ccccc1NC(=O)Cc1nc(CN2CCC3(CCOC3)C2)cs1` (stereo not drawn) [CBK304164], for which the viability at 28.5 h, 10 µM is 95.5%. Consider `CC(C)(O)C(=O)NCc1nc2c(s1)CC(c1ccccc1)CC2` (stereo not drawn) [CBK304165], for which the viability at 28.5 h, 10 µM worked out at 77.3%. For the compound `Cc1cnn(C2CCCN(C(=O)CCCc3cccs3)C2)c1` (stereo not drawn) [CBK304168], the viability at 28.5 h, 10 µM is 96.3%.

As for `CCOC(=O)CN1CC(O)CC1c1cccc(C(F)(F)F)c1` (stereo not drawn) [CBK304169], the viability at 28.5 h, 10 µM worked out at 97.9%.

Take `Cc1nn(C)c(C)c1CN1CCOC(c2nc(C(C)(C)C)cs2)C1` (stereo not drawn) [CBK304170]: the viability at 28.5 h, 10 µM was found to be 85.6%. As to `COCCc1noc(CC2CCN(c3ncc(Cl)cn3)CC2)n1` [CBK304172], the viability at 28.5 h, 10 µM came to 88.7%. Regarding `CCn1ncnc1CN(c1cccc(CO)c1)C1Cc2ccccc2C1` [CBK304173], the viability at 28.5 h, 10 µM was determined as 111%. Next, `CCOC(=O)C(NC(=O)c1cn[nH]c1)c1cccc(C)c1C` (stereo not drawn) [CBK304175]: 92.8%; `CCc1nn(C)cc1CNC1CCCN(c2ccc(C#N)cc2)C1=O` (stereo not drawn) [CBK304176]: 96.4%; `COCCc1noc(CC2CCN(c3nc(C)cc(C#N)n3)CC2)n1` [CBK304179]: 88.5%.

With `CSc1nnnn1-c1cccc(NC(=O)N2CCCN(C)CC2)c1` [CBK304180], the viability at 28.5 h, 10 µM worked out at 78.1%. In the case of `Cc1cc(NC(=O)CN(C)c2ncccc2C#N)no1` [CBK304182], the viability at 28.5 h, 10 µM worked out at 77.7%.
